From article PMC6858373 (Scientific Reports, 2019)
pIC50: −log10 of the molar value. “And” between values parts separate entries of the source, which are not always exact repeats. Identical values can stand only once.

Legend:
[1] = target: T1, FGF14:Nav1.6 C-tail complex (Homo sapiens, UniProt Q92915+Q9UQD0); test: Split-luciferase complementation assay (LCA) in Clone V double stable HEK293 cells; format: cell-based; conditions: for Split Luciferase Assay % Lum Set 1 / Split Luciferase Assay Z-score Set 1: biological replicate Set 1; for Split Luciferase Assay % Lum Set 1 / Split Luciferase Assay %Lum Set 2: normalized to on-plate 0.3% DMSO controls (n=16 per plate); for Split Luciferase Assay %Lum Set 2 / Split Luciferase Assay Z-score Set 2: biological replicate Set 2; for Split Luciferase Assay Z-score Set 1 / Split Luciferase Assay Z-score Set 2: normalized to on-plate 0.3% DMSO controls; for Split Luciferase Assay %Lum Avg: average of Set 1 and Set 2, normalized to 0.3% DMSO controls
T1 construct: polymerase chain reaction (PCR) amplification of the FGF14 open reading frame (nt 1–855); C-terminal fragment of Nav1.6 (amino acids 1763–1976) fused with CD4ΔC-tail (amino acids 1–395); expressed in transfected cells

[2] = target: full-length P. pyralis luciferase (Photinus pyralis, UniProt P08659, K549A/L550V/N119G/N50D/S548I); format: cell-based; conditions: CC_NCI screening, normalized to on-plate 0.3% DMSO controls; for Luciferase Assay % Lum: full-length luciferase counter-screen luminescence; for Luciferase Assay Z-score: full-length luciferase counter-screen
Clone V cells = test: CellTiter Blue (CTB) cell viability counter-screen; conditions: CC_NCI screening, normalized to on-plate 0.3% DMSO controls; for Toxicity Assay % Fluor: CTB cell viability fluorescence; for Toxicity Assay Z-score: CTB cell viability
[3] = CC_NCI screening, LCA luminescence

full-length P. pyralis luciferase, sequence (P08659 whole entry N50D/N119G/S548I/K549A/L550V, looked up): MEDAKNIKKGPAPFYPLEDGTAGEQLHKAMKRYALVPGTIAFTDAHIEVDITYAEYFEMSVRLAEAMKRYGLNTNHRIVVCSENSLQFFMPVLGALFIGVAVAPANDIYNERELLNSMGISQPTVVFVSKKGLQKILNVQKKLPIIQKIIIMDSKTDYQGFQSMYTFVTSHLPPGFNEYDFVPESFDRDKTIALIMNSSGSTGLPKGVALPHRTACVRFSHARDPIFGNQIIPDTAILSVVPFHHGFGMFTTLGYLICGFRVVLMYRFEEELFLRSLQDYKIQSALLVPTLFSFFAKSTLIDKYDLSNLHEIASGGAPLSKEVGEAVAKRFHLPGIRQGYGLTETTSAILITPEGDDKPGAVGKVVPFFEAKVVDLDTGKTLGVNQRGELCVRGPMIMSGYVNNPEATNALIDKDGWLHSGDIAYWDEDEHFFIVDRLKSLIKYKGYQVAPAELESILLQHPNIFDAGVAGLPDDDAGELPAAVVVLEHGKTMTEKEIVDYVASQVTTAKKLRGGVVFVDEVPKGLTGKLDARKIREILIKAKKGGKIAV
T1 sequence (Q92915 1-252 isoform Q92915-2): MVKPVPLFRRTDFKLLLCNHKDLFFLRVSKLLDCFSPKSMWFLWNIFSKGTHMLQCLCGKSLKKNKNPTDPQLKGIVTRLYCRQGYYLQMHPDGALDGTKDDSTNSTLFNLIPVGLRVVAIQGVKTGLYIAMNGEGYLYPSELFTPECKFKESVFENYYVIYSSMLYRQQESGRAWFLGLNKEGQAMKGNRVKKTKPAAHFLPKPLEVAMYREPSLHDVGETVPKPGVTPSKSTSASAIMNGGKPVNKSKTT
T1 sequence (Q9UQD0 1763-1976 limits assumed): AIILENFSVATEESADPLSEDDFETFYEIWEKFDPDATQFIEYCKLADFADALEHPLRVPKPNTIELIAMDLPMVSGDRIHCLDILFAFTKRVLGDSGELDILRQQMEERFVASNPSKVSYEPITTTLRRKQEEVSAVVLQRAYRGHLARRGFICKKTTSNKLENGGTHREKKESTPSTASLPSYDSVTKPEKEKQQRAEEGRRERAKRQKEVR

Row | SMILES | Split Luciferase Assay % Lum Set 1 [1, 3] | Split Luciferase Assay %Lum Set 2 [1, 3] | Split Luciferase Assay Z-score Set 1 ([1]; CC_NCI screening, LCA) | Split Luciferase Assay Z-score Set 2 ([1]; CC_NCI screening, LCA) | Split Luciferase Assay %Lum Avg ([1]; CC_NCI screening) | Luciferase Assay % Lum [2] | Luciferase Assay Z-score [2] | Toxicity Assay % Fluor (Clone V cells) | Toxicity Assay Z-score (Clone V cells) | also measured
1 | CN(N=O)C(=O)N[C@@H](C=O)[C@@H](O)[C@H](O)[C@H](O)CO [Streptozocin] | 130.78% | 124.84% | 2.49 | 2.02 | 127.81% | 99.54% | -0.06 | 96.94% | -0.43 | –
2 | Nc1cccc2c1CN(C1CCC(=O)NC1=O)C2=O (stereo not shown) [Lenalidomide] | 144.91% and 107.95% | 144.60% and 129.00% | 3.63 and 0.64 | 3.63 and 2.36 | 144.76% and 118.47% | 104.96% and 92.77% | – | 84.86% and 92.38% | – | –
3 | Cc1nc2c(O)cccc2c(=O)[nH]1 [NU 1025] | – | – | – | – | – | – | – | – | – | Split Luciferase Assay Z-score Set 1 ([1]; CC_NCI screening): -0.32; Split Luciferase Assay % Lum Set 1 ([1]; CC_NCI screening): 95.99%; Split Luciferase Assay Z-score Set 2 ([1]; CC_NCI screening): -4.33; Split Luciferase Assay %Lum Set 2 ([1]; CC_NCI screening): 46.81%; Split Luciferase Assay %Lum Avg [1]: 71.40%; Luciferase Assay % Lum (full-length luciferase counter-screen) [2]: 89.72%; Luciferase Assay Z-score (full-length luciferase counter-screen) [2]: -1.32; Toxicity Assay % Fluor (CTB cell viability fluorescence) (Clone V cells): 111.16%; Toxicity Assay Z-score (CTB cell viability) (Clone V cells): 1.56
4 | CCCCCCCCCCCCCCCCCCOP(=O)([O-])OC1CC[N+](C)(C)CC1 [PERIFOSINE] | 86.21% | 89.47% | -1.11 | -0.86 | 87.84% | 103.68% | 0.47 | 83.07% | -2.37 | –
5 | CO[C@H]1C[C@@H]2CC[C@@H](C)[C@@](O)(O2)C(=O)C(=O)N2CCCC[C@H]2C(=O)O[C@H]([C@H](C)C[C@@H]2CC[C@@H](OCCO)[C@H](OC)C2)CC(=O)[C@H](C)/C=C(\C)[C@@H](O)[C@@H](OC)C(=O)[C@H](C)C[C@H](C)/C=C/C=C/C=C/1C [Everolimus] | 76.42% | 84.27% | -1.91 | -1.28 | 80.34% | 72.79% | -3.48 | 91.22% | -1.23 | –
6 | O=C(CCCCCCC(=O)Nc1ccccc1)NO [Vorinostat] | 88.38% | 88.43% | -0.94 | -0.94 | 88.40% | 97.95% | -0.26 | 101.32% | 0.19 | –
7 | C#CCC(Cc1cnc2nc(N)nc(N)c2n1)c1ccc(C(=O)N[C@@H](CCC(=O)O)C(=O)O)cc1 (stereo partly shown) [Pralatrexate] | 117.73% | 106.11% | 1.43 | 0.50 | 111.92% | 103.37% | 0.43 | 96.60% | -0.47 | –
8 | COc1cc2c(Nc3ccc(Br)cc3F)ncnc2cc1OCC1CCN(C)CC1 [Vandetanib] | 89.47% | 115.47% | -0.85 | 1.26 | 102.47% | 80.83% | -2.46 | 97.46% | -0.36 | –
9 | Cc1ccc(NC(=O)c2ccc(CN3CCN(C)CC3)cc2)cc1Nc1nc(-c2cccnc2)cs1 [MASITINIB] | 5.76% | 16.64% | -7.62 | -6.78 | 11.20% | 52.92% | -6.03 | 86.99% | -1.82 | –
10 | Cc1c(NC(=O)OC[C@@H]2COCCN2)cn2ncnc(Nc3ccc4c(cnn4Cc4cccc(F)c4)c3)c12 [BMS-599626] | 38.37% | 50.98% | -4.98 | -3.99 | 44.68% | 83.05% | -2.17 | 101.94% | 0.27 | –
11 | C[C@]1(c2nc3c(C(N)=O)cccc3[nH]2)CCCN1 [ABT-888] | 75.34% | 93.63% | -1.99 | -0.52 | 84.48% | 105.22% | 0.67 | 107.03% | 0.98 | –
12 | C[C@]12CC[C@@H]3c4ccc(O)cc4C[C@@H](CCCCCCCCC[S+]([O-])CCCC(F)(F)C(F)(F)F)[C@H]3[C@@H]1CC[C@@H]2O (stereo partly shown) [Fulvestrant] | 94.90% | 91.55% | -0.41 | -0.69 | 93.23% | 83.45% | -2.12 | 83.63% | -2.29 | –
13 | CO[C@H]1C(=O)[C@]2(C)[C@@H](OC)C[C@H]3OC[C@@]3(OC(C)=O)[C@H]2[C@H](OC(=O)c2ccccc2)[C@]2(O)C[C@H](OC(=O)[C@H](O)[C@@H](NC(=O)OC(C)(C)C)c3ccccc3)C(C)=C1C2(C)C [Cabazitaxel] | 101.43% | 112.35% | 0.12 | 1.01 | 106.89% | 90.38% | -1.23 | 82.13% | -2.50 | –
14 | O=C(NOCC1CC1)c1ccc(F)c(F)c1Nc1ccc(I)cc1Cl [CI 1040, reference compound] | 50.33% | 42.65% | -4.01 | -4.67 | 46.49% | 103.28% | 0.42 | 85.93% | -1.97 | Z-score (LCA primary screening) ([1]; 30 µM, 384-well, average of primary screening (n = 2), vs on-plate 0.3% DMSO): −4.34; IMin (% Luminescence) ([1]; antagonists, Clone V cells, 384-well, normalized to DMSO): 46.49 % Luminescence; pIC50 ([1]; estimated, 8-point dose response 0.25-30 µM, n = 4 per concentration, library compounds, read-out: IC50): 4.83
15 | O=C(c1cc(Cc2n[nH]c(=O)c3ccccc23)ccc1F)N1CCN(C(=O)C2CC2)CC1 [AZD 2281] | 117.73% | 92.59% | 1.43 | -0.60 | 105.16% | 105.07% | 0.65 | 93.24% | -0.94 | –
16 | CN(C)C/C=C/C(=O)Nc1cc2c(Nc3ccc(F)c(Cl)c3)ncnc2cc1O[C@H]1CCOC1 [BIBW2992] | 70.99% | 94.67% | -2.34 | -0.43 | 82.83% | 76.41% | -3.02 | 100.79% | 0.11 | –
17 | Cc1ccc(F)c(NC(=O)Nc2ccc(-c3cccc4[nH]nc(N)c34)cc2)c1 [ABT-869] | 14.46% | 21.85% | -6.91 | -6.36 | 18.15% | 60.04% | -5.12 | 87.41% | -1.76 | –
